Data on 14 molecules can be found in PubChem BioAssay (NCI).

Structures are written as SMILES.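 Compound exposure: 48 hours, 5 concentrations, 96-well plates. The concentration for full growth arrest is given as TGI.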 Bounds are passed on as bounds.

For the first test, the system named is M14 melanoma. The test is described as follows: NCI anticancer screen, dose series, 48 h.
`Nc1nc2c(ncn2Cc2ccc(CO)cc2)c(=O)[nH]1` had a TGI above 100 µM.

In the case of `O=P(O)(Cc1ccccc1)c1ccccc1-c1ccccc1`, the TGI is above 100 µM.

`CCO/C=N/NC(=O)CSc1nc2ccc(I)cc2c(=O)n1Cc1ccccc1` showed a TGI above 100 µM.

Molecule `CC12CC(C#N)(C#N)C(C#N)(CO1)C(=N)O2` (stereo not given) came in with a TGI above 100 µM.

As for `CC(C)=C1C(=O)C[C@]2(C)C[C@H]3/C(=C(/C)CCC12)CC[C@@]3(C)O` (stereo not given in full), the TGI was above 50 µM.

`CCCCn1c(C)c2c(c1C)C(=O)N(CC(O)CN1CCc3ccccc3C1)C2=O` (stereo not given) showed a TGI above 100 µM.

Molecule `Cc1cc(C)nc(NS(=O)(=O)c2ccc(NNC(=O)c3cccc4c(=O)c5ccccc5[nH]c34)cc2)n1` displayed a TGI above 100 µM.

In turn, `O=C(NCCCN(CCCCN(CCCNC(=O)C(F)(F)F)CCCc1ccccc1)CCCc1ccccc1)C(F)(F)F` came in with a TGI of 3.25 µM.

With `COc1cc(C2SCC(=O)N2c2ccc(Cl)c(Cl)c2)cc(OC)c1OC` (stereo not given), the TGI is above 100 µM.

Molecule `COc1cccc2c1C(=O)c1c(O)c3c(c(O)c1C2=O)C[C@@](O)(C(=O)CO)C[C@@H]3OC1CC(N)C(OC)C(C)O1` (stereo not given in full) registered a TGI of 0.996 µM.

The molecule `C[C@H]1C2Cc3cc(N)ccc3[C@@]1(C)CCN2CCc1ccccc1` gave a TGI of 40 µM.

For the molecule `COC(=O)c1c(O)ccc2c1c1c(n2Cc2ccc(Cl)cc2Cl)C(=O)c2ccccc2C1`, the TGI is above 100 µM.

The molecule `NCCCNCCCCNCCCN` showed a TGI of 29.4 µM.

Consider `CCOC(=O)c1cc(C2(O)CCN(CC(C)CC)C2=O)c(-c2cc(C)no2)[nH]1` (stereo not given), for which the TGI is above 100 µM.

In a further test the test system is MOLT-4 leukemia. The test is described as follows: NCI anticancer screen, dose series, 48 h.
Turning to `Nc1nc2c(ncn2Cc2ccc(CO)cc2)c(=O)[nH]1`, the TGI was above 100 µM.

Take `O=P(O)(Cc1ccccc1)c1ccccc1-c1ccccc1`: the TGI is above 100 µM.

`CCO/C=N/NC(=O)CSc1nc2ccc(I)cc2c(=O)n1Cc1ccccc1` displayed a TGI above 100 µM.

In turn, `CC12CC(C#N)(C#N)C(C#N)(CO1)C(=N)O2` (stereo not given) came in with a TGI above 100 µM.

For `CC(C)=C1C(=O)C[C@]2(C)C[C@H]3/C(=C(/C)CCC12)CC[C@@]3(C)O` (stereo not given in full), the TGI was above 50 µM.

Regarding `CCCCn1c(C)c2c(c1C)C(=O)N(CC(O)CN1CCc3ccccc3C1)C2=O` (stereo not given), the TGI is above 100 µM.

With `Cc1cc(C)nc(NS(=O)(=O)c2ccc(NNC(=O)c3cccc4c(=O)c5ccccc5[nH]c34)cc2)n1`, the TGI is above 100 µM.

The molecule `O=C(NCCCN(CCCCN(CCCNC(=O)C(F)(F)F)CCCc1ccccc1)CCCc1ccccc1)C(F)(F)F` came in with a TGI of 4.48 µM.

`COc1cc(C2SCC(=O)N2c2ccc(Cl)c(Cl)c2)cc(OC)c1OC` (stereo not given) registered a TGI above 67 µM.

The molecule `COc1cccc2c1C(=O)c1c(O)c3c(c(O)c1C2=O)C[C@@](O)(C(=O)CO)C[C@@H]3OC1CC(N)C(OC)C(C)O1` (stereo not given in full) came in with a TGI of 0.0517 µM.

In turn, `C[C@H]1C2Cc3cc(N)ccc3[C@@]1(C)CCN2CCc1ccccc1` had a TGI above 100 µM.

`COC(=O)c1c(O)ccc2c1c1c(n2Cc2ccc(Cl)cc2Cl)C(=O)c2ccccc2C1` registered a TGI above 100 µM.

With `NCCCNCCCCNCCCN`, the TGI came to 17.5 µM.

`CCOC(=O)c1cc(C2(O)CCN(CC(C)CC)C2=O)c(-c2cc(C)no2)[nH]1` (stereo not given) showed a TGI above 100 µM.

A further test has as its system SF-268 CNS. Description: NCI anticancer screen, dose series, 48 h.
Molecule `Nc1nc2c(ncn2Cc2ccc(CO)cc2)c(=O)[nH]1` registered a TGI above 100 µM.

`O=P(O)(Cc1ccccc1)c1ccccc1-c1ccccc1` displayed a TGI above 100 µM.

With `CCO/C=N/NC(=O)CSc1nc2ccc(I)cc2c(=O)n1Cc1ccccc1`, the TGI was above 100 µM.

On to `CC12CC(C#N)(C#N)C(C#N)(CO1)C(=N)O2` (stereo not given), for which the TGI is above 100 µM.

Turning to `CC(C)=C1C(=O)C[C@]2(C)C[C@H]3/C(=C(/C)CCC12)CC[C@@]3(C)O` (stereo not given in full), the TGI was above 50 µM.

In turn, `CCCCn1c(C)c2c(c1C)C(=O)N(CC(O)CN1CCc3ccccc3C1)C2=O` (stereo not given) gave a TGI above 100 µM.

Turning to `Cc1cc(C)nc(NS(=O)(=O)c2ccc(NNC(=O)c3cccc4c(=O)c5ccccc5[nH]c34)cc2)n1`, the TGI is above 100 µM.

On to `O=C(NCCCN(CCCCN(CCCNC(=O)C(F)(F)F)CCCc1ccccc1)CCCc1ccccc1)C(F)(F)F`, for which the TGI turned out to be 3.3 µM.

The molecule `COc1cc(C2SCC(=O)N2c2ccc(Cl)c(Cl)c2)cc(OC)c1OC` (stereo not given) had a TGI above 100 µM.

`COc1cccc2c1C(=O)c1c(O)c3c(c(O)c1C2=O)C[C@@](O)(C(=O)CO)C[C@@H]3OC1CC(N)C(OC)C(C)O1` (stereo not given in full) showed a TGI of 1.97 µM.

In the case of `C[C@H]1C2Cc3cc(N)ccc3[C@@]1(C)CCN2CCc1ccccc1`, the TGI was above 100 µM.

Take `COC(=O)c1c(O)ccc2c1c1c(n2Cc2ccc(Cl)cc2Cl)C(=O)c2ccccc2C1`: the TGI is above 100 µM.

`NCCCNCCCCNCCCN`: the TGI was above 92.9 µM.

Molecule `CCOC(=O)c1cc(C2(O)CCN(CC(C)CC)C2=O)c(-c2cc(C)no2)[nH]1` (stereo not given) displayed a TGI above 100 µM.

A further test deals with NCI-H226 lung. The test is described as follows: NCI anticancer screen, dose series, 48 h.
For `Nc1nc2c(ncn2Cc2ccc(CO)cc2)c(=O)[nH]1`, the TGI was above 100 µM.

Consider `O=P(O)(Cc1ccccc1)c1ccccc1-c1ccccc1`, for which the TGI is above 100 µM.

Consider `CCO/C=N/NC(=O)CSc1nc2ccc(I)cc2c(=O)n1Cc1ccccc1`, for which the TGI is above 100 µM.

In the case of `CC12CC(C#N)(C#N)C(C#N)(CO1)C(=N)O2` (stereo not given), the TGI is above 100 µM.

On to `CC(C)=C1C(=O)C[C@]2(C)C[C@H]3/C(=C(/C)CCC12)CC[C@@]3(C)O` (stereo not given in full), for which the TGI was above 50 µM.

For `CCCCn1c(C)c2c(c1C)C(=O)N(CC(O)CN1CCc3ccccc3C1)C2=O` (stereo not given), the TGI is above 100 µM.

Consider `Cc1cc(C)nc(NS(=O)(=O)c2ccc(NNC(=O)c3cccc4c(=O)c5ccccc5[nH]c34)cc2)n1`, for which the TGI is above 100 µM.

Take `O=C(NCCCN(CCCCN(CCCNC(=O)C(F)(F)F)CCCc1ccccc1)CCCc1ccccc1)C(F)(F)F`: the TGI was found to be 27 µM.

Turning to `COc1cc(C2SCC(=O)N2c2ccc(Cl)c(Cl)c2)cc(OC)c1OC` (stereo not given), the TGI was above 79.4 µM.

Molecule `COc1cccc2c1C(=O)c1c(O)c3c(c(O)c1C2=O)C[C@@](O)(C(=O)CO)C[C@@H]3OC1CC(N)C(OC)C(C)O1` (stereo not given in full) displayed a TGI of 0.47 µM.

In turn, `C[C@H]1C2Cc3cc(N)ccc3[C@@]1(C)CCN2CCc1ccccc1` gave a TGI above 100 µM.

With `COC(=O)c1c(O)ccc2c1c1c(n2Cc2ccc(Cl)cc2Cl)C(=O)c2ccccc2C1`, the TGI is 73.2 µM.

Molecule `NCCCNCCCCNCCCN` registered a TGI above 100 µM.

As for `CCOC(=O)c1cc(C2(O)CCN(CC(C)CC)C2=O)c(-c2cc(C)no2)[nH]1` (stereo not given), the TGI is above 100 µM.

The subject of another test is NCI-H23 lung. Description: NCI anticancer screen, dose series, 48 h.
The molecule `Nc1nc2c(ncn2Cc2ccc(CO)cc2)c(=O)[nH]1` displayed a TGI above 100 µM.

The molecule `O=P(O)(Cc1ccccc1)c1ccccc1-c1ccccc1` returned a TGI above 100 µM.

`CCO/C=N/NC(=O)CSc1nc2ccc(I)cc2c(=O)n1Cc1ccccc1` came in with a TGI above 100 µM.

Molecule `CC12CC(C#N)(C#N)C(C#N)(CO1)C(=N)O2` (stereo not given) displayed a TGI above 100 µM.

In turn, `CC(C)=C1C(=O)C[C@]2(C)C[C@H]3/C(=C(/C)CCC12)CC[C@@]3(C)O` (stereo not given in full) displayed a TGI above 50 µM.

`CCCCn1c(C)c2c(c1C)C(=O)N(CC(O)CN1CCc3ccccc3C1)C2=O` (stereo not given): the TGI is above 100 µM.

Molecule `Cc1cc(C)nc(NS(=O)(=O)c2ccc(NNC(=O)c3cccc4c(=O)c5ccccc5[nH]c34)cc2)n1` showed a TGI above 100 µM.

In turn, `O=C(NCCCN(CCCCN(CCCNC(=O)C(F)(F)F)CCCc1ccccc1)CCCc1ccccc1)C(F)(F)F` yielded a TGI of 25.3 µM.

For `COc1cc(C2SCC(=O)N2c2ccc(Cl)c(Cl)c2)cc(OC)c1OC` (stereo not given), the TGI was above 100 µM.

`COc1cccc2c1C(=O)c1c(O)c3c(c(O)c1C2=O)C[C@@](O)(C(=O)CO)C[C@@H]3OC1CC(N)C(OC)C(C)O1` (stereo not given in full) displayed a TGI of 0.457 µM.

For `C[C@H]1C2Cc3cc(N)ccc3[C@@]1(C)CCN2CCc1ccccc1`, the TGI was above 100 µM.

`COC(=O)c1c(O)ccc2c1c1c(n2Cc2ccc(Cl)cc2Cl)C(=O)c2ccccc2C1`: the TGI was above 100 µM.

Molecule `NCCCNCCCCNCCCN` gave a TGI above 100 µM.

On to `CCOC(=O)c1cc(C2(O)CCN(CC(C)CC)C2=O)c(-c2cc(C)no2)[nH]1` (stereo not given), for which the TGI was above 100 µM.
